Drawing on ChEMBL document CHEMBL1149689, “Pomiferin, histone deacetylase inhibitor isolated from the fruits of Maclura pomifera” (Bioorg Med Chem Lett, 2007), this text covers GI50 and IC50 for 2 compounds.

The test system of one data set is NCI-H23. The data set is described as follows: cells. The data set is classed as functional. To be noted: Homo sapiens, NCI-H23, 21 h.
The target of another data set is Histone deacetylase. The data set is described as follows: Inhibition of HDAC in HeLa cells. The data set is classed as cell-based, Homo sapiens.
Another data set concerns LOX IMVI. Description: cells. To be noted: Homo sapiens, 21 h. The data set is classed as functional.
The next data set concerns MDA-MB-231. Description: cells. The data set is classed as functional. As to conditions: Homo sapiens, MDA-MB-231, 21 h.
The subject of another data set is HCT-15. The data set is described as follows: cells. The data set is classed as functional. As to conditions: Homo sapiens, HCT-15, 21 h.
A further data set is described as follows: in vitro. As to conditions: human, hepatocytes.
The next data set has as its system ACHN. Description: cells. The data set is classed as functional. To be noted: Homo sapiens, 21 h.
The next data set concerns PC-3. Description: cells. The data set is classed as functional. As to conditions: Homo sapiens, PC-3, 21 h.

Bounds are passed on as bounds.

Description for ACHN: Growth inhibition of human ACHN cells after 21 hrs by MTT assay
Description for HCT-15: Growth inhibition of human HCT15 cells after 21 hrs by MTT assay
Description for LOX IMVI: Growth inhibition of human LOX-IMVI cells after 21 hrs by MTT assay
Description for MDA-MB-231: Growth inhibition of human MDA-MB-231 cells after 21 hrs by MTT assay
Description for NCI-H23: Growth inhibition of human NCI-H23 cells after 21 hrs by MTT assay
Description for PC-3: Growth inhibition of human PC3 cells after 21 hrs by MTT assay
Description for in vitro: Growth inhibition of human hepatocytes after 21 hrs by MTT assay

Turning to `CC(C)=CCc1c2c(c3occ(-c4ccc(O)cc4)c(=O)c3c1O)C=CC(C)(C)O2` [OSAJIN], the GI50 in the data set with NCI-H23 is 12 µM; in the data set with LOX IMVI, 11 µM; with MDA-MB-231, 11.3 µM; in the data set with HCT-15, 9.65 µM; in the data set with ACHN, 12.1 µM; in the data set with PC-3, 12.3 µM. At Histone deacetylase, this compound registered an IC50 of 6.53 µM. This compound also yielded a GI50 at 21 h in “in vitro” greater than 500 µM.
As to `CC(C)=CCc1c2c(c3occ(-c4ccc(O)c(O)c4)c(=O)c3c1O)C=CC(C)(C)O2` [POMIFERIN], the GI50 was determined as 5.14 µM in the data set with NCI-H23; 3.34 µM in the data set with LOX IMVI; 2.92 µM in the data set on MDA-MB-231; 1.32 µM in the data set with HCT-15; 3.18 µM in the data set with ACHN; 3.95 µM in the data set on PC-3. The compound further gave an IC50 on Histone deacetylase of 1.05 µM. The same compound came in with a GI50 at 21 h in “in vitro” of 123 µM.

As a reminder, the GI50 is the concentration at which growth is held to half of that of the control. A lower GI50 goes with greater sensitivity of the cells. One may read the IC50 as the concentration needed to halve the response being measured. Lower therefore signals greater potency.
